From ChEMBL document CHEMBL5500415, “Design of a Lead-Like Cysteine-Targeting Covalent Library and the Identification of Hits to Cys55 of Bfl-1” (J Med Chem, 2024)

Columns and labels:
[1] = molecular target: T1, Bcl-2-related protein A1 (Homo sapiens, UniProt Q16548); experiment: Inhibition of human recombinant N-terminal his tagged Bfl-1 (1 to 151 residues) expressed in Escherichia coli BL21-Gold (DE3) cells using HyLite Fluor 647-labeled BIM peptide as substrate incubated for 120 mins by TR-FRET assay
T1 sequence (Q16548 whole entry): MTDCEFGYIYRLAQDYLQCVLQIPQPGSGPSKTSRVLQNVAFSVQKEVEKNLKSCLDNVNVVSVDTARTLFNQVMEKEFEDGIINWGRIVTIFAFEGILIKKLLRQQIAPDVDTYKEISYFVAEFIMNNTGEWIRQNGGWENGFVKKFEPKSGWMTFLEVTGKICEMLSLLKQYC

[2] = Lipophilicity, logD of compound at pH 7.4 by shake-flask method; assay type: physicochemical; details: buffer
[3] = GSH reactivity assessed as half life at pH 7.4 incubated for 24 hrs by LC-UV-MS analysis; assay type: physicochemical; details: glutathione (GSH) solution
[4] = molecular target: T2, Bcl-2-related protein A1 (Homo sapiens) (UniProt Q16548); experiment: Binding affinity to N-terminal His6-tagged recombinant human Bfl-1 (1 to 151 residues) expressed in Escherichia coli BL21-Gold (DE3) cells assessed as Kinact/ki incubated for 10 to 90 mins by MS analysis; details: time 10-90 min
T2 sequence (whole entry): T1 sequence (Q16548 whole entry)

C=CC(=O)N1CCC[C@@H]1c1ccccc1
IC50 [1]: 480 µM | logD [2]: 1.7 | half-life [3]: 13.7 h | K [4]: 0.7 M⁻¹ s⁻¹

C=CC(=O)N(Cc1ccccc1OCC(N)=O)c1ccc(Cl)cc1
IC50 [1]: 16.8 µM | K [4]: 5.5 M⁻¹ s⁻¹

C=CC(=O)N(C)[C@@H](c1ccc(Cl)cc1)C1CCOCC1 (racemic)
IC50 [1]: 90.9 µM | K [4]: 0.8 M⁻¹ s⁻¹

C=CC(=O)Nc1cc(CN2CCCC2)ccc1-c1ccc(OC)cc1C
IC50 [1]: 18 µM | K [4]: 6.8 M⁻¹ s⁻¹

C=CC(=O)N1C[C@@H](Oc2cc(Cl)c(F)cc2C#N)[C@H]1CCC (racemic)
IC50 [1]: 10.4 µM | K [4]: 9.5 M⁻¹ s⁻¹

C=CC(=O)N(Cc1ccc(OC)cc1)c1cccc(Cl)c1
IC50 [1]: 23.4 µM | K [4]: 7.5 M⁻¹ s⁻¹
